# Measurements reported in patent US12667566B2, “Combination therapy of GPR119 agonists and DPP-4 inhibitors” (MANKIND PHARMA LTD., priority 2019, dated 2026).
# Key:
# active GLP-1 = test: Active GLP-1 estimation; format: in vivo; settings: male Sprague Dawley rats, oral
# Description: FIG. 2. Effect of GPR119 agonist Formula 1A on active GLP-1 levels in male Sprague Dawley rats. Formula 1A was administered to the rats and GLP-1 levels were estimated at different time points (0, 5, 15, 30 & 60 min) and compared to vehicle group. Data was analysed by One-Way ANOVA followed by Dunnett's Multiple Comparison Test. *P<0.05, **P<0.01, ***P<0.001 vs vehicle control. Vehicle used was 0.5% Tween 80 and 99.5% NaCMC in water (0.5% w/v).
# GLP-1 estimation is conducted in male Sprague dawley rats. Animals of 8-10 weeks old were kept for overnight fasting (only water was provided ad libitum). […] were randomized based on basal glucose values into four different groups. Vehicle (0.5% Tween 80 and 99.5% NaCMC in water (0.5% w/v) was administered to control animals and remaining groups were administered with test compound prepared in vehicle at respective doses orally.
# For active GLP-1 estimation, blood was collected by retro orbital puncture under isoflurane anesthesia. Active GLP-1 levels were estimated from the collected plasma at −30, 0, 5, 15, 30 & 60 min time points. Blood collection (Approximately 400-500 μl) was done by retro orbital puncture under isoflurane anesthesia with the help of DPP-4 inhibitor (#DPP4-010, Merck-Millipore) rinsed capillaries and collected into pre-coated Eppendorf (10 μl/ml of blood) with DPP-4 inhibitor.
# blood glucose = test: Oral glucose tolerance test (OGTT); format: in vivo; settings: male Sprague Dawley rats, glucose load 2 g/kg
# Description: FIG. 1. Oral glucose tolerance test (OGTT) of GPR119 agonist Formula 1A in male Sprague Dawley rats. Formula 1A was administered to the rats and blood glucose was monitored post 30 min of dose administration (0-time point). After glucose administration (2 g/kg/10 ml), glucose levels were estimated at different time points (5, 15, 30, 60 & 120 min) and compared to vehicle group. Data was analysed by One-Way ANOVA followed by Dunnett's Multiple Comparison Test. *P<0.05, **P<0.01 & ***P<0.001 vs vehicle control. Vehicle used was 0.5% Tween 80 and 99.5% NaCMC in water (0.5% w/v).
# OGTT study is conducted in male Sprague dawley rats. […] Vehicle (0.5% Tween 80 and 99.5% NaCMC in water (0.5% w/v) was administered to control animals and remaining groups were administered with test compound prepared in vehicle at respective doses orally. Blood samples were collected immediately after test compound administration (which was −30 min time point). Blood glucose was monitored post 30 min of dose administration (which was a zero min time point). All animals received 2 g/kg/10 ml (20%) of Glucose solution orally. After glucose administration, glucose levels were estimated at different time points (5, 15, 30, 60 & 120 min). Estimation of blood glucose level was done by strip method. […] Blood glucose AUC was calculated from the samples collected at respective time points. […]
Compound,increase in active GLP-1 secretion compared to vehicle (active GLP-1; 10 mg/kg/wt),glucose reduction compared to vehicle (blood glucose; 10 mg/kg),increase in active GLP-1 secretion compared to vehicle (active GLP-1; 3 mg/kg/wt),glucose reduction compared to vehicle (blood glucose; 3 mg/kg)
CCc1cnc(N2CCC([C@H](C)Oc3nn4cc(-c5ccc(S(C)(=O)=O)cc5F)nc4s3)CC2)nc1 [Formula IA],123%,16%,–,–
"N[C@@H](CC(=O)N1CCn2c(nnc2C(F)(F)F)C1)Cc1cc(F)c(F)cc1F [sitagliptin, (3R)-3-amino-1-[3-(trifluoromethyl)-5,6,7,8-tetrahydro-5H-[1,2,4]triazolo-[4,3-a]pyrazin-7-yl]-4-(2,4,5-trifluorophenyl) butan-1-one]",–,–,253%,15%
